# Literature values, collected in paper PMC9302689 (British Journal of Clinical Pharmacology, 2022).
# Key:
# [1] = cited from earlier work
# [2] = cited from earlier work; remark: listed apart in the source
Compound,NeuroCart effects [1],Effect on serum cortisol and prolactin levels [2]
CNC1(c2ccccc2Cl)CCCCC1=O (stereo not shown) [Ketamine],"decreased saccadic peak velocity, adaptive tracking and alertness and increased body sway and psychedelic effects",
CN(C)CCCC1(c2ccc(F)cc2)OCc2cc(C#N)ccc21 (stereo not shown) [citalopram],,increase levels of these hormones
CN(C)CCC[C@@]1(c2ccc(F)cc2)OCc2cc(C#N)ccc21 [escitalopram],,increase levels of these hormones
Buprenorphine,decreased adaptive tracking and saccadic peak velocity and increased body sway,
